Measured values published in patent US20240390434A1, “PROBIOTIC ENHANCERS AND USES THEREOF” (Blis Technologies Limited, priority 2021, published 2024).

Legend:
Assay type in all cases: cell-based
[1] = system: ENTR indicator strains; test: Dose response deferred antagonism assay, producer M18: average over indicators
[2] = system: S. mutans OMZ175; test: Deferred antagonism assay, producer S. salivarius M18
Experimental: (§1) 1-2 producer strain colonies were transferred from a stock plate into 900 μL of suspension solution using a fresh cotton swab. Following this, suspensions were vortexed, and a sample was inoculated onto solid culture media using a fresh cotton swab. The inoculation was a streak that runs diametrically across the agar plate in a 1.5 cm wide strip. The plate was then incubated. Following incubation all visible colonies were removed by swabbing them from the agar surface. The plates were then treated with chloroform by dispensing 2 ml of chloroform onto 4 cm×4 cm piece of cloth and sealing the inverted agar plate on top for 30 minutes. The plates were then air dried for 30 minutes following chloroforming. 1-2 indicator strain colonies were then transferred from a stock plate into complementary suspension solution. The suspensions were then vortexed, and a sample was inoculated onto the same agar surface. These samples were streaked in a perpendicular direction to the initial producer streak.
(§2) Each indicator streak was prepared with fresh a suspension containing cells from a corresponding stock plate containing the indicator strain of interest. Indicator strains suspension samples were transferred using a fresh cotton swab. Results were measured by qualitatively reviewing the subsequent (if any) sizes of the zones of inhibition (ZOI) of indicator strain colony growth. A positive result is when there is a distinctive reduction or complete inhibition of indicator colony growth on the culture medium.
(§3) CABCa agar plates containing various concentrations of saccharide were prepared according to the methods described in Method 1. Producer strains were transferred from stock agar plates into 900 μL THB using a fresh cotton swab. A plastic spread plater was cut to approximately 1.2 cm width and then dipped into ethanol and left to air dry to ensure sterility. A 100 μL sample of the producer strain suspension was then dispensed onto the agar surface in a straight line running diametrically across the agar surface in (approximately) 20 μL spots. The spots were spaced approximately 1.5 cm apart from each other. The plastic spreader was then used to evenly distribute the spots across the agar surface in a 1.5 cm wide strip. This step was taken to ensure an even producer streak was inoculated onto the agar surface and provided an approximate measure of the initial inoculum concentration. Separate plastic spreaders were used for samples containing different producer strains. The samples were left to soak into the agar surface until there was no visible liquid remaining on the agar surface (approximately 20 minutes). Following producer streak preparations, the deferred antagonism assay protocol was followed as per Method 2. Results were recorded by measuring the size of the zone of inhibition (ZOI) in mm.
(§4) A dose response assay was carried out according to method 3 above, except a 1.2 cm streak was used. For the individual saccharide testing the pH of the producer streak was adjusted after the growth of producer to change the acidic conditions.
A deferred antagonism assay was conducted using K12 or M18 raw ingredient suspended in Todd Hewitt broth (THB). This was spread as a 1.2 cm streak containing approximately 1-2×10^6 cfu down the middle of a CABCa control or CABCa galactose supplemented test plate. After 18 hrs growth at 37° C. with 5% CO2, bacterial growth was removed, and the pH of the agar in the initial streak was measured and adjusted to a pH of 6.5-7.5 using 0.5M sodium carbonate pH11 before sterilizing the agar surface using chloroform vapor. Bacterial test strains were suspended in i-THB before being swabbed across the plates perpendicular to the initial streak. Plates were incubated for a further 18 hrs incubation at 37° C. with 5% CO2 before measuring (mm) any zones of inhibition for each test strain, […]

[3] = system: M. catarrhalis TW1; test: Deferred antagonism assay, producer S. salivarius K12
Experimental: as §1, §2, §3, §4

[4] = system: ENTR indicator strains; test: Dose response deferred antagonism assay, producer K12: average over indicators
Experimental: as §1, with “The suspensions were then vortexed, and a sample was inoculated onto the same agar surface. These samples were streaked in a perpendicular direction to the initial producer streak.” left out
Each indicator streak was prepared with fresh a suspension containing cells from a corresponding stock plate containing the indicator strain of interest. […] Results were measured by qualitatively reviewing the subsequent (if any) sizes of the zones of inhibition (ZOI) of indicator strain colony growth. […]
CABCa agar plates containing various concentrations of saccharide were prepared according to the methods described in Method 1. […] Results were recorded by measuring the size of the zone of inhibition (ZOI) in mm. […]

[5] = system: pathogens implicated in the ENT and Skin infections; test: Deferred antagonism assay with other S. salivarius producer strains
Experimental: Method: Preparation of solid culture media—CABCa agar plates were prepared with or without either 2.5% w/w raffinose or 0.5% w/w galactose by the addition of 0.5% (w/v) calcium carbonate to solid CAB agar in bottles and then melted by autoclaving at 110° C. for 10 mins. Once cooled, filter sterilised solutions of the saccharides or distilled water were added and mixed and then 20 ml pipetted into petri dishes.
Preparing S. salivarius producer suspension, about 6 colonies of each S. salivarius strain were added into separate tubes containing 1 ml THB and mixed well.
Deferred antagonism assay—100 μl of S. salivarius producer suspensions was dispensed onto CABCa plates supplemented with or without raffinose or galactose as droplets in a vertical line down the middle of the test plate. This suspension was then spread as 1.2 cm streak down the middle of the plate using a cutdown plastic spreader. Plates were incubated for 18 hours at 37° C., 5% CO2 in air.
After incubation, the bacterial growth was then removed from the agar plate using a sterile cotton swab. The pH of the producer streak was then adjusted by placing a 1 cm wide strip of filter paper soaked in 0.5M sodium carbonate pH 11 onto the agar plate to buffer the acid and adjust the pH up to around pH 6.5-7.5.
Plates were surface sterilised with chloroform vapour for 30 minutes, followed by air drying for 30 minutes.
Bacterial indicator suspensions were prepared by adding 3-9 colonies (depending on the size) of each strain into separate tubes containing 3 ml THB. These suspensions were then swabbed across the agar plate perpendicular to the producer streak and then the agar plate was incubated for a further 18 hours at 37° C., 5% CO2 in air.

[6] = system: M. catarrhalis TW2; test: Dose response deferred antagonism assay, producer M18

OC[C@H]1O[C@H](OC[C@H]2O[C@H](O[C@]3(CO)O[C@H](CO)[C@@H](O)[C@@H]3O)[C@H](O)[C@@H](O)[C@@H]2O)[C@H](O)[C@@H](O)[C@H]1O [Raffinose, D-(+) Raffinose pentahydrate] was tested, and the “Average ZOI change” value ([1]; 1.5% raffinose) was 22.16 mm, the “sensitivity of S. mutans OMZ175 to M18” value ([2]; 0.5, 1.25, 2.5, and 5% w/v raffinose added) was “sensitive” and the “Zone of inhibition S. mutans OMZ175” value ([2]; M18, Raffinose 1.7% wt) was 22 mm. For the same compound, the “Zone of inhibition S. mutans OMZ175” value ([2]; M18, Raffinose 1.7% wt, pH adjusted) was 21 mm, the “Zone of inhibition S. mutans OMZ175” value ([2]; M18, Raffinose 2.5% wt) was 20 mm and the “Zone of inhibition S. mutans OMZ175” value ([2]; M18, Raffinose 2.5% wt, pH adjusted) was 19 mm. The “Zone of inhibition S. mutans OMZ175” value ([2]; M18, Raffinose 3.3% wt) was 21 mm, the “Zone of inhibition S. mutans OMZ175” value ([2]; M18, Raffinose 3.3% wt, pH adjusted) was 17 mm and the “Zone of inhibition S. mutans OMZ175” value ([2]; M18, Raffinose 5% wt) was 19 mm. For the same compound, the “Zone of inhibition S. mutans OMZ175” value ([2]; M18, Raffinose 5% wt, pH adjusted) was 16 mm, the “Zone of inhibition S. mutans OMZ175” value ([2]; M18, Raffinose 10% wt) was 0 mm and the “Zone of inhibition S. mutans OMZ175” value ([2]; M18, Raffinose 10% wt, pH adjusted) was 0 mm. For the same compound, the “change in ZOI size M. catarrhalis TW1” value ([3]; 2.0% (w/v) raffinose, peak) was 13 mm, the “Zone of inhibition M. catarrhalis TW1” value ([3]; Raffinose 1.7% wt) was 0 mm and the “Zone of inhibition M. catarrhalis TW1” value ([3]; Raffinose 1.7% wt, pH adjusted) was 0 mm. For the same compound, the “Zone of inhibition M. catarrhalis TW1” value ([3]; Raffinose 2.5% wt) was 10 mm, the “Zone of inhibition M. catarrhalis TW1” value ([3]; Raffinose 2.5% wt, pH adjusted) was 0 mm and the “Zone of inhibition M. catarrhalis TW1” value ([3]; Raffinose 3.3% wt) was 0 mm. For the same compound, the “Zone of inhibition M. catarrhalis TW1” value ([3]; Raffinose 3.3% wt, pH adjusted) was 0 mm, the “Zone of inhibition M. catarrhalis TW1” value ([3]; Raffinose 5% wt) was 5 mm and the “Zone of inhibition M. catarrhalis TW1” value ([3]; Raffinose 5% wt, pH adjusted) was 0 mm. For the same compound, the “Zone of inhibition M. catarrhalis TW1” value ([3]; Raffinose 10% wt) was 6 mm, the “Zone of inhibition M. catarrhalis TW1” value ([3]; Raffinose 10% wt, pH adjusted) was 0 mm and the “Average ZOI change” value ([4]; 1.5% raffinose) was 10.33 mm. For the same compound, the “induction of inhibitory effect in other S. salivarius strains, exception ATCC 7073” value ([5]; 2.5% w/w raffinose, compared with K12 and M18) was “does not induce same inhibitory effect”, the “antimicrobial activity of S. salivarius strain ATCC 7073” value ([5]; supplemented with 2.5% w/w raffinose) was “antimicrobial activity” and the “change in zone of inhibition size M. catarrhalis TW2” value ([6]; 1.5% (w/v) raffinose) was 31 mm.

In the case of O=C[C@H](O)[C@@H](O)[C@@H](O)[C@H](O)CO [Galactose, D-galactose], the “Average ZOI change” value ([1]; 1.5% galactose) is reported as 11.5 mm, the zone of inhibition at 0.5 % strength ([2]; Streptococcus mutans, OMZ175, M18, Galactose 0.5% w/w, read-out: Size of zone inhibition normalised to control, S. mutans OMZ175) is reported as 16 mm and the zone of inhibition at 1.25 % strength ([2]; Streptococcus mutans, OMZ175, M18, Galactose 1.25% w/w, read-out: Size of zone inhibition normalised to control, S. mutans OMZ175) is reported as 0 mm. For the same compound, the zone of inhibition at 1.7 % strength ([2]; Streptococcus mutans, OMZ175, M18, Galactose 1.7% w/w, read-out: Size of zone inhibition normalised to control, S. mutans OMZ175) was 0 mm, the zone of inhibition at 2.5 % strength ([2]; Streptococcus mutans, OMZ175, M18, Galactose 2.5% w/w, read-out: Size of zone inhibition normalised to control, S. mutans OMZ175) was 0 mm and the zone of inhibition at 3.3 % strength ([2]; Streptococcus mutans, OMZ175, M18, Galactose 3.3% w/w, read-out: Size of zone inhibition normalised to control, S. mutans OMZ175) was 6 mm. The zone of inhibition at 5 % strength ([2]; Streptococcus mutans, OMZ175, M18, Galactose 5% w/w, read-out: Size of zone inhibition normalised to control, S. mutans OMZ175) was 0 mm, the “change in TW1 ZOI size” value ([3]; 1.5% galactose (w/v), peak) was 12 mm and the “Average ZOI change” value ([4]; 2% galactose) was 9.5 mm. The “induction of inhibitory effect in other S. salivarius strains” value ([5]; 0.5% w/w galactose, compared with K12 and M18) was “does not induce the same inhibitory effect”, the “increase in zone of inhibition M. catarrhalis TW2” value ([6]; 1.0% (w/v) galactose) was 13 mm and the “increase in zone of inhibition M. catarrhalis TW2” value ([6]; 1.5% (w/v) galactose) was 23 mm.
